Patent publication US6906170B1 (Yeda Research and Development Co. Ltd., priority 1998, dated 2005)
No end group written: not given here.

Legend:
T cells = experiment: Staining of actin cytoskeleton in FN-adherent activated T cells; assay type: cell-based, human; details: TRITC-phalloidin staining
Experimental: FIGS. 8A-8E show inhibition by pep2 of the spreading and redistribution of the actin cytoskeleton in IL-2- and PMA-activated FN-adherent T cells. […] After incubation, the intracellular actin filaments of the fixed FN-attached T cells were stained. Original magnification, =1000.
Staining of actin cytoskeleton. T cells were incubated (18 h, 37° C., 7.5% CO2, humidified atmosphere) in culture medium. […] After 1 h at 37° C., the adherent cells were fixed (3 min) with paraformaldehyde (3%) and Triton X-100 (0.5%), washed, and fixed (20 min) again with paraformaldehyde (3%). The fixed adherent cells were washed, treated with TRITC-phalloidin, and washed again. Photographs (×1000 magnification) were then taken.
Inhibition of the reorganization of the actin cytoskeleton in FN-attached activated T cells by the […](SEQ ID NO:1) peptide. The adhesion of immune cells to ECM is dependent on the sequestering of the cytoplasmic domains of integrins in focal adhesion sites, together with actin-containing microfilament bundles (Sanchez-Mateos et al., 1996). Therefore, we examined the effect of […](SEQ ID NO:1) on the morphologies of adherent T cells. […] After incubation and fixation, the actin cytoskeleton of attached T cells was stained with TRITC-conjugated phalloidin. […]

human T cells [1] = experiment: IL-2-induced T cell adhesion to fibronectin (FN); assay type: cell-based; details: for concentration giving maximum inhibition of IL-2-induced T cell adhesion to FN / concentration giving maximum inhibition of IL-2-induced T cell adhesion to FN (molar) / inhibition of adhesion of IL-2-activated T cells to FN: IL-2 10 U/ml; for inhibition of adhesion of IL-2-activated T cells to FN: 30 min at 37° C., dose range; for anti-adhesive effect after removal of peptide prior to IL-2 activation: T cells pre-treated 1 pg/ml, washed, then IL-2 and FN-coated wells
Experimental: (§1) T cell adhesion assays. Human T cells were purified from the peripheral blood of healthy donors, and T cell adhesion to immobilized protein substrates was examined as follows: Human leukocytes were isolated on a Ficoll gradient, washed, and incubated (2 h, 37° C., 7.5% CO2, humidified atmosphere) on petri dishes. The non-adherent cells were then collected and incubated (1 h, 37° C., 7.5% CO2, humidified atmosphere) on nylon wool columns (Novamed Ltd., Jerusalem, Israel). Unbound cells were eluted from the columns by extensive washings. The resulting cell population was always >92% T cells. […] After 4-6 h at 37° C., the wells were washed and ^51[Cr]-labeled T cells were added to the wells, 10^5 cells/100 μl of adhesion medium (RPMI-1640 supplemented with 0.1% BSA, 1% sodium pyruvate, 1% HEPES buffer). The microtiter plates containing the cells were incubated (30 min, 37° C.) in a humidified, 7.5% CO2 atmosphere, and then washed. The adherent cells were lysed, and the resulting supernatants were removed and analyzed in a γ-counter. For each experimental group, the results were expressed as the mean percentage ±SD of bound T cells from quadruplicate wells.
The effect of synthetic peptides, with putative amino acid compositions corresponding to fractions 2 and 8, on IL-2-induced T cell adhesion to FN. […] These three peptides were synthesized, and their effects on IL-2-induced T cell adhesion to FN were studied. […] The inhibitory dose-response curves of Ile-Val-Leu and […](SEQ ID NO:1) are similar to those of the HPLC fractions 2 and 8, respectively, from which they were derived. […]

human T cells [2] = experiment: PHA- or IL-2-mediated T cell proliferation; assay type: cell-based; details: peptide 1 to 100 pg/ml
Experimental: The in vitro bioassays (a) to (e) are well-known in the art. Thus, for example, assays (a), (b) and (e) may be carried out as described in the section Materials and Methods hereinafter. […] The IL-2-derived peptides or their derivatives are added to the culture wells (different amounts, 10 microliters) for the entire period of the assay. [^3H]-Thymidine is added to the microtiter 96 U-form well plates 18 h before harvesting the cultures on day 3 onto glass fiber filters and counted by liquid scintillation counter. Mean CPM and SD from quadriplicate culture are then presented.

human T cells [3] = experiment: IL-2-induced T cell adhesion to LN, CO-IV and FN after peptide pre-treatment; assay type: cell-based; details: pre-exposed to peptide 10 pg/ml, then IL-2 10 U/ml
Experimental: The T cells were then seeded onto microtiter wells that were pre-coated (1 μg/well) with the various ECM glycoproteins. T cell adhesion was measured 30 min later.
as §1
Ile-Val-Leu, Arg-Met-Leu-Thr (SEQ ID NO:2) and […](SEQ ID NO:1) inhibit T cell adhesion to LN, CO-IV and FN. The next experiment was designed and performed to verify that the three IL-2-derived peptides indeed affect T cell interactions with ECM glycoproteins other than FN. […] The treated cells were then added to microtiter wells coated with CO-IV, LN, and FN.

human T cells [4] = experiment: T cell adhesion to FN induced by various activators; assay type: cell-based; details: for inhibition of T cell adhesion to FN induced by various stimulators: peptide 10 pg/ml, IL-2, IL-7, MIP-1β, PMA, 8A2 mAb, anti-CD3 mAb
Experimental: FIGS. 7A-7B show inhibition by pep2 (FIG. 7A) and pep1 (FIG. 7B) of T cell adhesion to FN, induced by various activators. […] (1 μg/ml), or anti-human CD3 mAb (1 μg/ml). The IL-2-derived peptides, pep1 or pep2, were also present in some wells. After 30 min at 37° C., non-adherent T cells were removed by washing, the remaining adherent cells were lysed, and the percentage of T cells that had adhered was determined. One experiment representative of four.
as §1
Inhibition by the Ile-Val-Leu and […](SEQ ID NO:1) peptides of T cell adhesion to FN induced by various pro-inflammatory mediators and by mAb specific for molecules expressed on T cells.

HT-29 cells = experiment: Spontaneous IL-8 secretion from intestinal epithelial cells (ELISA); assay type: cell-based, human; design: IL-8 secretion Average O.D.: scale not given here; details: peptide 1 nM, 24 h at 37° C.; for IL-8 secretion Average O.D.: ELISA O.D. at 405 nm, medium alone 488 ± 8.5, background 71 ± 1.4; for IL-8 secretion % inhibition: spontaneous secretion
Experimental: Human colonic epithelial cell lines HT-29 (ATCC HTB38) and Caco-2 (ATCC […]) were obtained from the American Type Culture Collection (ATTC, Rockville, Md.). Cells were maintained in culture medium (DMEM supplemented with 10% cosmic calf serum (CSS), 2 mM glutamine, 100 U/ml penicillin, and 0.1 mg/ml streptomycin), at 37° C. and atmosphere of 5%, CO2. Cell viability was assessed using the standard MTT method.
Spontaneous or cytokine-induced secretion of IL-8 or IL-1β from intestinal epithelial cell. Test cells (HT-29 or Caco-2) were grown as confluent monolayers in 24-well tissue culture plates. […] When TNF-α was used, the peptides were added to the cells 1 hour prior to the addition of TNF-α. Following culture, the supernatants were harvested and analyzed for IL-8 or IL-1β secretion by ELISA using commercially available kits for IL-8 (Pharmingen) and IL-1β (Genzyme), according to the manufacturers' protocols.
The results in Table 1 show the O.D. readings of the ELISA assay (at 405 nm) as well as the percentage of inhibition of IL-8 secretion.

Row | Substance | redistribution of the actin cytoskeleton in IL-2- and PMA-treated FN-adherent T cells (T cells) | concentration giving maximum inhibition of IL-2-induced T cell adhesion to FN (human T cells [1]) | concentration giving maximum inhibition of IL-2-induced T cell adhesion to FN (molar) (human T cells [1]) | inhibition of adhesion of IL-2-activated T cells to FN (human T cells [1]) | anti-adhesive effect after removal of peptide prior to IL-2 activation (human T cells [1]) | interference with PHA- or IL-2-mediated proliferative responses (human T cells [2]) | inhibition of T cell adhesion to CO-IV, LN and FN (human T cells [3]) | inhibition of 8A2-induced T cell adhesion to FN (human T cells [4]; peptide 0.1 pg/ml) | inhibition of PMA-induced T cell adhesion to FN (human T cells [4]; peptide 0.1 pg/ml) | inhibition of T cell adhesion to FN induced by various stimulators (human T cells [4]) | IL-8 secretion Average O.D. (HT-29 cells) | IL-8 secretion % inhibition (HT-29 cells) | inhibition of anti-CD3 mAb-induced T cell adhesion to FN (human T cells [4]; peptide 0.1 pg/ml)
1 | Glu-Phe-Leu-Asn-Arg-Trp-Ile-Thr (EFLNRWIT; not fully specified (C-terminus); printed as Glu-Phe-Leu-Asn-Arg-Trp-Ile-Thr) [pep2] | inhibited the redistribution of the actin skeleton | 1 pg/mL | 0.92 pM | inhibited, in a dose-dependent manner | most of the anti-adhesive effects of the three peptides persevered | none of them, at 1 to 100 pg/ml, interfered with either PHA- or IL-2-mediated proliferative responses | inhibit T cell adhesion to the three major cell-adhesive glycoproteins of the ECM | did not inhibit | did not inhibit | inhibited T cell adhesion to FN | 36 ± 4.2 | 108% | –
2 | Ile-Val-Leu [pep1] | inhibition of the redistribution of the actin cytoskeleton | 1 pg/mL | 2.91 pM | inhibited, in a dose-dependent manner | most of the anti-adhesive effects of the three peptides persevered | none of them, at 1 to 100 pg/ml, interfered with either PHA- or IL-2-mediated proliferative responses | inhibit T cell adhesion to the three major cell-adhesive glycoproteins of the ECM | did not inhibit | did not inhibit | inhibited T cell adhesion to FN | 54 ± 19.1 | 104% | did not inhibit
